Data published in US4894382A, “Substituted 1,3-diazolyl-2-propanols and their use as antimycotic agents” (Bayer Aktiengesellschaft, priority 1983, dated 1990).
Values after ≈ are worked out from the molar mass of the structure shown.

Experiments:
Aspergillus fumigatus = experiment: Antimycotic in vitro activity (series dilution test), Aspergillus fumigatus; format: cell-based; conditions: Sabourand's milieu d'epreuve, 5×10^4 germs/ml, 20° C., 96 hours, read-out: MIC values in Y/ml of nutrient medium for Aspergillus fumigatus
Method: (§1) Antimycotic in vitro activity
(§2) The in vitro tests were carried out in a series dilution test using germ inocula of on average 5×10^4 germs/ml of substrate. The nutrient medium used was (a) for dermatophytes and moulds: Sabourand's milieu d'epreuve, and (b) for yeasts: meat extract/glucose broth.
(§3) The incubation temperature was 20° C. and the incubation time was 24 to 96 hours for yeasts and 96 hours for dermatophytes and moulds.

Candida albicans = experiment: Antimycotic in vitro activity (series dilution test), Candida albicans; format: cell-based; conditions: meat extract/glucose broth, 5×10^4 germs/ml, 20° C., 24 to 96 hours, read-out: MIC values in Y/ml of nutrient medium for Candida albicans
Method: as §1, §2, §3

Trichophyton mentagr. = experiment: Antimycotic in vitro activity (series dilution test), Trichophyton mentagr.; format: cell-based, Trichophyton mentagrophytes; conditions: Sabourand's milieu d'epreuve, 5×10^4 germs/ml, 20° C., 96 hours, read-out: MIC values in Y/ml of nutrient medium for Trichophyton mentagr.
Method: as §1, §2, §3

[1] = tested on: dermatophytes, moulds and yeasts; experiment: Antimycotic in vitro activity (series dilution test), overall; format: cell-based
Method: as §1, §2, §3

Microsporum canis = experiment: Antimycotic in vitro activity (series dilution test), Microsporum canis; format: cell-based; conditions: Sabourand's milieu d'epreuve, 5×10^4 germs/ml, 20° C., 96 hours, read-out: MIC values in Y/ml of nutrient medium for Microsporum canis
Method: as §1, §2, §3

Torulopsis glabrata = experiment: Antimycotic in vitro activity (series dilution test), Torulopsis glabrata; format: cell-based; conditions: Nakaseomyces glabratus; meat extract/glucose broth; 5×10^4 germs/ml; 20° C.; 24 to 96 hours; read-out: MIC values in Y/ml of nutrient medium for Torulopsis glabrata
Method: as §1, §2, §3

Candida = experiment: Antimycotic in vivo action (oral) in candidosis of mice; design: species or system mice of the SPF-CF1 type; conditions: 10-50 mg/kg one hour before and seven hours after i.v. infection
Method: Antimycotic in vivo action (oral) in candidosis of mice
Mice of the SPF-CF1 type were infected intravenously with 1-2×10^6 logarithmically growing Candida cells, suspended in physiological saline solution. The animals were treated orally one hour before and seven hours after the infection, with in each case 10-50 mg/kg of body weight of the products.
Untreated animals died 3 to 6 days after infection. The survival rate on the 6th day after infection was about 5% in the case of untreated animals.

Structure (SMILES)	MIC (Aspergillus fumigatus)	MIC (Candida albicans)	MIC (Trichophyton mentagr.)	antimycotic action in vitro (in words) [1]	MIC (Microsporum canis)	MIC (Torulopsis glabrata)	Action (survivors on the 6th day after infection) (Candida)	action in candidosis of mice (in words) (Candida)
CC(C)(Cc1ccc(Cl)cc1Cl)C(O)(Cn1cncn1)Cn1cncn1 [Example 1, 4-(2,4-dichlorophenyl)-3,3-dimethyl-2-(1,2,4-triazol-1-yl-methyl)-1-(1,2,4-triazol-1-yl)-2-butanol]	32 µg/mL (≈ 81 µM)	32 µg/mL (≈ 81 µM)	1 µg/mL (≈ 2.53 µM)	good antimycotic action	32 µg/mL (≈ 81 µM)	64 µg/mL (≈ 162 µM)	+++++ (very good action=90% survivors on the 6th day after infection)	good to very good action
CC(C)(Cc1ccc(Cl)cc1)C(O)(Cn1cncn1)Cn1cncn1 [Example 2]	4 µg/mL (≈ 11.1 µM)	4 µg/mL (≈ 11.1 µM)	1 µg/mL (≈ 2.77 µM)	good antimycotic action	4 µg/mL (≈ 11.1 µM)	16 µg/mL (≈ 44.3 µM)	+++++ (very good action=90% survivors on the 6th day after infection)	good to very good action
Cc1ccc(CC(C)(C)C(O)(Cn2cncn2)Cn2cncn2)cc1 [Example 3]	4 µg/mL (≈ 11.7 µM)	16 µg/mL (≈ 47 µM)	1 µg/mL (≈ 2.94 µM)	good antimycotic action	8 µg/mL (≈ 23.5 µM)	64 µg/mL (≈ 188 µM)	++++ (good action=80% survivors on the 6th day after infection)	good to very good action
CC(C)(CSc1ccc(Cl)cc1)C(O)(Cn1cncn1)Cn1cncn1 [Example 5]	32 µg/mL (≈ 81.4 µM)	32 µg/mL (≈ 81.4 µM)	1 µg/mL (≈ 2.55 µM)	good antimycotic action	32 µg/mL (≈ 81.4 µM)	64 µg/mL (≈ 163 µM)	++++ (good action=80% survivors on the 6th day after infection)	good to very good action
CC(C)(Oc1ccc(Cl)cc1)C(O)(Cn1cncn1)Cn1cncn1 [Example 6]	64 µg/mL (≈ 176 µM)	4 µg/mL (≈ 11 µM)	32 µg/mL (≈ 88.2 µM)	good antimycotic action		16 µg/mL (≈ 44.1 µM)	++++ (good action=80% survivors on the 6th day after infection)	good to very good action
CC(C)(Cc1ccc(Cl)cc1)C(O)(Cn1ccnc1)Cn1cncn1 (centres unmarked) [Example 8]							++++ (good action=80% survivors on the 6th day after infection)	good to very good action
